Measured values reported in patent US5618726A, “Biodegradable azo dyes” (priority 1994, dated 1997).

How the values were obtained:
[1] = biological target: T1, horseradish peroxidase type II (Armoracia rusticana, UniProt P00433); assay: Oxidation of azo dyes by horseradish peroxidase preparation; assay type: biochemical; conditions: pH 8, 37° C., H2O2
T1 sequence (P00433 31-338): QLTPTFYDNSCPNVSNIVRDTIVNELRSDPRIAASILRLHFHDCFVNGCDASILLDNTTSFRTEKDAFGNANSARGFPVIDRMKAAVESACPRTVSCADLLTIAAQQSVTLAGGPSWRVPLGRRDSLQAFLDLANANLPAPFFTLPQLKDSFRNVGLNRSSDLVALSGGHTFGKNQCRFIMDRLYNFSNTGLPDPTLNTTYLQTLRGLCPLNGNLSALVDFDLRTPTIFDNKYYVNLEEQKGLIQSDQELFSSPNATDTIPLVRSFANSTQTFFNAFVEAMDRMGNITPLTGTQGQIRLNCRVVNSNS
Procedure: The reaction was started with the addition of 100 μl of 50 mM H2 O2 and was followed for 1 min at 37° C. Controls were run with no addition of H2 O2 or with the addition of the hemeperoxidase inhibitor KCN (final concentration 25 μM).

[2] = test system: Phanerochaete chrysosporium; assay: Substrate removal / decolorization by P. chrysosporium culture; assay type: cell-based; conditions: for % Decolorization, P. chrysosporium: 14 days
Procedure: Environ. Microbiol., 1981, 42:290-296), with the addition of 75 mg adenine (6-aminopurine) and 27 mg L-phenylalanine-per-liter. This addition accelerated the growth of the fungus without inhibiting ligninase activity. […] […] Cultures were incubated at 37° C. for 7 to 15 days with shaking (250 rpm). Solid agar media were also employed.

[3] = test system: ligninase; assay: Oxidation of dyes by P. chrysosporium ligninase (crude preparation); assay type: biochemical, Phanerochaete chrysosporium; conditions: crude enzyme, conditions specific for ligninase
Procedure: The peroxidase assay was carried out using a composition having a final volume of 1.0 ml. The reaction mixture contained 250 μl of 100 mM HEPES buffer (pH 8), 500 μl of 10 mM 2,4-dichlorophenol, 100 μl of 1 mM aminoantipyrine, 50 μl enzyme preparation and 100 μl 50 mM H2 O2. The reaction was initiated by the addition of hydrogen peroxide at 37° C. One unit of peroxidase activity was expressed as the amount of enzyme required for an increase of one absorbance-unit-per-minute at 510 nm. Assays of manganese peroxidase and of ligninase from P. chrysosporium were carried out as previously described by Paszczynski et al in "Manganese peroxidase of Phanerochaete chrysosporium: Purification," Methods Enzymol. 161:264-270, incorporated herein by reference. […] Biophys., 1986, 44:750-765. Preparation and assay of ligninase and manganese peroxidase from these P. chrysosporium cultures were carried out as previously reported by Paszczynski, et al., Methods Enzymol., 1988, 161:264-270. […] Purification," Methods Enzymol. 161:264-270. […] Cycle time was 30 seconds with the last measure after 15 minutes. […] The reaction conditions were the same as for acid yellow 9. No decolorization of the synthesized dyes by ligninase was detected.

[4] = test system: S. chromofuscus A11 extracellular peroxidase; assay: Oxidation of azo dyes by S. chromofuscus A11 crude enzyme preparation; assay type: biochemical, Streptomyces chromofuscus A11; conditions: pH 8, 37° C., H2O2
Procedure: Environ. Microbiol., 1988, 54:3057-3063. […] Microbiol. Biotechnol., 34:661-667. Incubation took place at 37° C. with shaking at 250 rpm. The culture supernatant was collected after 48 h incubation, and vacuum-filtered through Whatman no. 1 filter paper. The filtrate was concentrated approximately 40- to 50-fold by ultrafiltration through an Amicon ultrafiltration stirred cell (series no. 8000, Amicon Corp.) with a disc PM-10 filter (diameter, 76 mm). Protein in the concentrated filtrate was then precipitated from solution with 80% ammonium sulfate. The precipitate was collected by centrifugation (15 min, 10,000 rpm). The pellet was resuspended in 10 ml of 20 mM HEPES buffer (pH 8) and dialyzed overnight against the same buffer at 4° C. These preparations were then stored in 1-ml aliquots at -20° C. until used. Before using, the preparation was filtered through a NAP-25 Sephadex G-25 disposable column (Pharmacia) in order to separate a yellowish protein fraction from a pink low-molecular-weight fraction. The yellowish fraction was used as the source of enzyme. […] The reaction was started with the addition of 100 μl of 50 mM H2 O2 and was followed for 1 min at 37° C. Controls were run with no addition of H2 O2 or with the addition of the hemeperoxidase inhibitor KCN (final concentration 25 μM).

[5] = test system: Mn(II)-peroxidase; assay: Oxidation of dyes by P. chrysosporium Mn(II)-peroxidase; assay type: biochemical, Phanerochaete chrysosporium; conditions: crude enzyme, conditions specific for Mn(II)-peroxidase
Procedure: The peroxidase assay was carried out using a composition having a final volume of 1.0 ml. The reaction mixture contained 250 μl of 100 mM HEPES buffer (pH 8), 500 μl of 10 mM 2,4-dichlorophenol, 100 μl of 1 mM aminoantipyrine, 50 μl enzyme preparation and 100 μl 50 mM H2 O2. The reaction was initiated by the addition of hydrogen peroxide at 37° C. One unit of peroxidase activity was expressed as the amount of enzyme required for an increase of one absorbance-unit-per-minute at 510 nm. Assays of manganese peroxidase and of ligninase from P. chrysosporium were carried out as previously described by Paszczynski et al in "Manganese peroxidase of Phanerochaete chrysosporium: Purification," Methods Enzymol. 161:264-270, incorporated herein by reference. […] Biophys., 1986, 44:750-765. Preparation and assay of ligninase and manganese peroxidase from these P. chrysosporium cultures were carried out as previously reported by Paszczynski, et al., Methods Enzymol., 1988, 161:264-270. […] Purification," Methods Enzymol. 161:264-270. […] Cycle time was 10 seconds, with the last measure after three minutes of incubation.

[6] = beginning concentration 100 ppm
[7] = beginning concentration 150 ppm
[8] = beginning concentration 200 ppm
[9] = beginning concentration 300 ppm

| Structure (SMILES) | Oxidation rate of azo dyes, Horseradish peroxidase [1] [μmoles per minute per ml] | Concentration of substrate after ten days cultivation with P. chrysosporium [2, 6] [ppm] | Concentration of substrate after ten days cultivation with P. chrysosporium [2, 7] [ppm] | Concentration of substrate after ten days cultivation with P. chrysosporium [2, 8] [ppm] | Concentration of substrate after ten days cultivation with P. chrysosporium [2, 9] [ppm] | % Decolorization, P. chrysosporium ([2]; initial concn 150 ppm) [%] | % Decolorization, P. chrysosporium ([2]; initial concn 300 ppm) [%] | Oxidation rate of azo dyes, P. chrysosporium Ligninase [3] [μmoles per minute per ml] | Oxidation rate of azo dyes, S. chromofuscus peroxidase [4] [μmoles per minute per ml] | Oxidation rate of azo dyes, P. chrysosporium Mn-peroxidase [5] [μmoles per minute per ml] |
| --- | --- | --- | --- | --- | --- | --- | --- | --- | --- | --- |
| CCc1ccc(O)c(N=Nc2ccc(S(=O)(=O)O)cc2)c1 [compound 9] | 0.20 | 81.911 | 109.822 | 32.044 | 153.733 | 89 | 86 | 1.27 | 0.35 | 0.07 |
| O=S(=O)(O)c1ccc(N=Nc2cc(F)c(O)c(F)c2)cc1 [compound 12] | 0.17 | 2.368 | 44.227 | 6.160 | 198.240 | 86 | 93 | 11.61 | 0.15 | 0.00 |
| O=S(=O)(O)c1ccc(N=Nc2c(O)ccc3ccccc23)cc1 [compound 31] | 0.52 | – | – | – | – | – | – | 1.18 | 0.09 | 0.47 |
| Cc1ccc(O)c(N=Nc2ccc(S(=O)(=O)O)cc2)c1 [compound 8] | 0.07 | 16.079 | 28.401 | 29.704 | 135.680 | 27 | 49 | 0.49 | 0.14 | 0.32 |
| COc1ccc(N=Nc2ccc(S(=O)(=O)O)cc2)cc1 [compound 16] | 0.06 | 67.801 | 92.683 | 179.300 | 219.079 | 61 | 55 | 0.25 | 0.06 | 0.00 |
| Cc1cc(O)c(N=Nc2ccc(S(=O)(=O)O)cc2)cc1C [compound 7] | 0.34 | 62.893 | 41.044 | 10.200 | 246.044 | 81 | 55 | 1.35 | 0.19 | 0.11 |
| COc1ccc(N=Nc2ccc(S(=O)(=O)O)cc2)cc1OC [compound 17] | 0.32 | 29.803 | 58.942 | 93.250 | 136.057 | 79 | 74 | 1.03 | 0.50 | 0.72 |
| Nc1ccc(N=Nc2ccc(S(=O)(=O)O)cc2)cc1 [compound 30] | 0.40 | – | – | – | – | 85 | 80 | 1.58 | 0.00 | 0.59 |
| CN(C)c1ccc(N=Nc2ccc(S(=O)(=O)O)cc2)cc1 [compound 14] | 0.07 | 4.411 | 11.843 | 15.529 | 36.800 | 93 | 94 | 0.32 | 0.10 | 0.15 |
| O=S(=O)(O)c1ccc(N=Nc2ccc(O)cc2)cc1 [compound 6] | 0.47 | 12.909 | 14.003 | 33.309 | 39.326 | 72 | 18 | 0.45 | 0.42 | 0.02 |
